Results on 28 compounds are retold here after patent publication US11724997B2, “Compounds and compositions for treating conditions associated with APJ receptor activity” (Annapurna Bio, Inc., priority 2018, dated 2023).

The target of the assay is T1, APJ Receptor (Homo sapiens, UniProt P35414).
T1 sequence (P35414 1-380): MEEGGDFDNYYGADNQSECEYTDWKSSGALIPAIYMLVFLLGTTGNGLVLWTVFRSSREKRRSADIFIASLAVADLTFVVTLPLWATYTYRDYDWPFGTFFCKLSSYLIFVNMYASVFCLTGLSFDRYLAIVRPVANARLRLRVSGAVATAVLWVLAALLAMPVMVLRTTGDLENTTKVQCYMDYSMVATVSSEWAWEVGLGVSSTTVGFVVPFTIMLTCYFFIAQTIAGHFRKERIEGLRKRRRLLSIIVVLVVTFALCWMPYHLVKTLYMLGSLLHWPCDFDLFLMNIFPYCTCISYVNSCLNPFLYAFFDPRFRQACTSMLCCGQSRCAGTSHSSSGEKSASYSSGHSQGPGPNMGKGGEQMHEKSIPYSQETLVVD
In words: APJ cAMP assay: inhibition of forskolin-stimulated cAMP, enzyme fragment complementation, in CHO-K1 cells stably expressing the APJ Receptor. The format is cell-based. The note with it: CHO-K1 cell line (DiscoverX) stably expressing APJ Receptor; EC80 forskolin; 30 minutes at 37° C.; read-out: APJ cAMP EC50 Potency range. An excerpt: Activation of APJ receptor is known to inhibit forskolin-stimulated cyclic AMP (cAMP) production in cells in a pertussis toxin-sensitive manner which indicates primary coupling to the GαI subunit of the G protein heterotrimeric complex. In addition to signaling through G protein and inhibition of cAMP, APJ receptor activation also results in β-arrestin recruitment, receptor internalization and activation of extracellular-regulated kinases (ERKs).
In order to optimize functional activity directed toward Gi coupling we utilized a CHO-K1 cell line developed by DiscoverX stably expressing the APJ Receptor. Cells expressing APJR receptor were plated in a 384-well microtiter plates and incubated overnight at 37° C. with 5% CO2 to allow the cells to attach and grow. Media was then aspirated from the cells and replaced with 15 uL 2:1 Hanks Balanced Salt Solution (HBSS)/10 mM Hepes. cAMP XS+ Ab reagent. Five microliters (5 uL) of previously generated compound sample stocks at 4× final concentration in assay buffer containing 4×EC80 forskolin were then added to the cells and allowed to incubate at 37° C. for 30 minutes.
After incubation the assay signal was generated using a technology termed enzyme fragment complementation (EFC). In EFC the enzyme B-galactosidase is split into two complementary portions (EA and ED). The fragment ED is fused to cAMP and in the assay format competes with endogenous cAMP for binding to a cAMP specific antibody. Activated B-Gal is formed when exogenous EA fragment binds to free ED-cAMP (not bound to cAMP specific antibody). Activated enzyme levels are detected through conversion of B-gal chemiluminescent substrate which generates a detectable luminescence signal and read on standard microtiter plate.
The methodology for detection of cAMP using EFC requires incubation with 20 uL of cAMP XS+ ED/CL lysis cocktail for one hour followed by incubation with 20 uL cAMP XS+ EA reagent for three hours at room temperature. Microplates were read following signal generation with a PerkinElmer Envision instrument utilizing chemiluminescent signal detection.
Compound activity was analyzed using CBIS data analysis suite (ChemInnovation, CA).
Percentage activity was calculated using the following formula: % Activity=[…]×(1−(mean RLU of test sample−mean RLU of Max control)/(mean RLU of vehicle control−mean RLU of Max control))
The biological activity of the exemplified compounds of this invention determined by the assay described above is shown in Table 1. The APJ cAMP EC50 potency ranges are as follows: A: EC50<1 nM; B: 1≤EC50<100 nM; and C: 100≤EC50<10,000 nM.

A word on the EC50: it is the concentration at which the effect is half-maximal. Turning to `COc1cccc(-c2nnc(C(=O)NS(=O)(=O)[C@@H](C)c3ccccc3)n2-c2c(OC)cccc2OC)n1` (single isomer, unassigned) [Example 32], the EC50 was in the range of 1 to 100 nM.

With `COc1cccc(-c2nnc(C(=O)NS(=O)(=O)[C@H](C)c3ccccc3)n2-c2c(OC)cccc2OC)n1` (single isomer, unassigned) [Example 33], the EC50 fell in the range of 1 to 100 nM.

Take `CCOc1cccc(-c2nnc(C(=O)NS(=O)(=O)[C@@H](C)c3ccccc3)n2-c2c(OC)cccc2OC)n1` (single isomer, unassigned) [Example 39]: the EC50 was less than 1 nM.

For `CCOc1cccc(-c2nnc(C(=O)NS(=O)(=O)[C@H](C)c3ccccc3)n2-c2c(OC)cccc2OC)n1` (single isomer, unassigned) [Example 40], the EC50 is less than 1 nM.

Regarding `CCOc1cccc(-c2nnc(C(=O)NS(=O)(=O)C[C@@H](C)c3ccccc3)n2-c2c(OC)cccc2OC)n1` (single isomer, unassigned) [Example 45], the 50% effective concentration (EC50) was less than 1 nM.

On to `CCOc1cccc(-c2nnc(C(=O)NS(=O)(=O)C[C@H](C)c3ccccc3)n2-c2c(OC)cccc2OC)n1` (single isomer, unassigned) [Example 46], for which the EC50 was less than 1 nM.

Consider `CCOc1cccc(-c2nnc(C(=O)NS(=O)(=O)[C@H]3CCc4ccccc4C3)n2-c2c(OC)cccc2OC)n1` (single isomer, unassigned) [Example 47], for which the half-maximal effective concentration (EC50) is less than 1 nM.

In the case of `CCOc1cccc(-c2nnc(C(=O)NS(=O)(=O)[C@@H]3CCc4ccccc4C3)n2-c2c(OC)cccc2OC)n1` (single isomer, unassigned) [Example 48], the EC50 is less than 1 nM.

Take `CCOc1cccc(-c2nnc(C(=O)NS(=O)(=O)c3ccccc3)n2-c2c(OC)cccc2OC)n1` [Example 1, 4-(2,6-dimethoxyphenyl)-5-(6-ethoxypyridin-2-yl)-N-(phenylsulfonyl)-4H-1,2,4-triazole-3-carboxamide]: the EC50 was less than 1 nM.

For `CCOc1cccc(-c2nnc(C(=O)NS(=O)(=O)Cc3ccccc3)n2-c2c(OC)cccc2OC)n1` [Example 2, N-(benzylsulfonyl)-4-(2,6-dimethoxyphenyl)-5-(6-ethoxypyridin-2-yl)-4H-1,2,4-triazole-3-carboxamide], the concentration for a half-maximal effect (EC50) was less than 1 nM.

In the case of `CCOc1cccc(-c2nnc(C(=O)NS(=O)(=O)CCc3ccccc3)n2-c2c(OC)cccc2OC)n1` [Example 3, 4-(2,6-dimethoxyphenyl)-5-(6-ethoxypyridin-2-yl)-N-(phenethylsulfonyl)-4H-1,2,4-triazole-3-carboxamide], the EC50 was less than 1 nM.

Regarding `COc1cccc(OC)c1-n1c(C(=O)NS(=O)(=O)Cc2ccccc2)nnc1-c1ccn(C)n1` [Example 4, N-(benzylsulfonyl)-4-(2,6-dimethoxyphenyl)-5-(1-methyl-1H-pyrazol-3-yl)-4H-1,2,4-triazole-3-carboxamide], the EC50 is 1 to 100 nM.

As to `CCn1ccc(-c2nnc(C(=O)NS(=O)(=O)Cc3ccccc3)n2-c2c(OC)cccc2OC)n1` [Example 5, N-(benzylsulfonyl)-4-(2,6-dimethoxyphenyl)-5-(1-ethyl-1H-pyrazol-3-yl)-4H-1,2,4-triazole-3-carboxamide], the EC50 was 1 to 100 nM.

As to `COc1nc(-c2nnc(C(=O)NS(=O)(=O)Cc3ccccc3)n2-c2c(OC)cccc2OC)cs1` [Example 6, N-(benzylsulfonyl)-4-(2,6-dimethoxyphenyl)-5-(2-methoxythiazol-4-yl)-4H-1,2,4-triazole-3-carboxamide], the EC50 was 1 to 100 nM.

`CCOCc1nnc(C(=O)NS(=O)(=O)Cc2ccccc2)n1-c1c(OC)cccc1OC` [Example 7, N-(benzylsulfonyl)-4-(2,6-dimethoxyphenyl)-5-(ethoxymethyl)-4H-1,2,4-triazole-3-carboxamide]: the EC50 fell in the range of 100 to 10000 nM.

For the compound `CCOc1cccc(-c2nnc(C(=O)N(C)S(=O)(=O)Cc3ccccc3)n2-c2c(OC)cccc2OC)n1` [Example 8, N-(benzylsulfonyl)-4-(2,6-dimethoxyphenyl)-5-(6-ethoxypyridin-2-yl)-N-methyl-4H-1,2,4-triazole-3-carboxamide], the EC50 was 1 to 100 nM.

For the compound `CCOc1cccc(-c2nnc(C(=O)NS(C)(=O)=O)n2-c2c(OC)cccc2OC)n1` [Example 9, 4-(2,6-Dimethoxyphenyl)-5-(6-ethoxypyridin-2-yl)-N-(methylsulfonyl)-4H-1,2,4-triazole-3-carboxamide], the EC50 was 1 to 100 nM.

In the case of `COc1ccn(-c2nnc(C(=O)NS(=O)(=O)Cc3ccccc3)n2-c2c(OC)cccc2OC)n1` [Example 10, N-(enzylsulfonyl)-4-(2,6-dimethoxyphenyl)-5-(3-methoxy-1H-pyrazol-1-yl)-4H-1,2,4-triazole-3-carboxamide], the EC50 fell in the range of 100 to 10000 nM.

With `COc1cccc(OC)c1-n1c(C(=O)NS(=O)(=O)Cc2ccccc2)nnc1-c1cc(C2CC2)no1` [Example 11, N-(benzylsulfonyl)-5-(3-cyclopropylisoxazol-5-yl)-4-(2,6-dimethoxyphenyl)-4H-1,2,4-triazole-3-carboxamide], the EC50 was 100 to 10000 nM.

Turning to `COc1cccc(OC)c1-n1c(C(=O)NS(=O)(=O)Cc2ccccc2)nnc1-c1ncc(C)c(OC)n1` [Example 12, N-(benzylsulfonyl)-4-(2,6-dimethoxyphenyl)-5-(4-methoxy-5-methylpyrimidin-2-yl)-4H-1,2,4-triazole-3-carboxamide], the EC50 lay within 100 to 10000 nM.

Consider `COc1cccc(-c2nnc(C(=O)NS(=O)(=O)Cc3ccccc3)n2-c2c(OC)cccc2OC)n1` [Example 13, N-(benzylsulfonyl)-4-(2,6-dimethoxyphenyl)-5-(6-methoxypyridin-2-yl)-4H-1,2,4-triazole-3-carboxamide], for which the EC50 lay in the range of 1 to 100 nM.

With `COc1cccc(OC)c1-n1c(C(=O)NS(=O)(=O)Cc2ccccc2)nnc1-c1cccc(C)n1` [Example 14, N-(benzylsulfonyl)-4-(2,6-dimethoxyphenyl)-5-(6-methylpyridin-2-yl)-4H-1,2,4-triazole-3-carboxamide], the EC50 is 1 to 100 nM.

Take `COc1cccc(OC)c1-n1c(C(=O)NS(=O)(=O)Cc2ccccc2)nnc1-c1ccc(C)cn1` [Example 15, N-(benzylsulfonyl)-4-(2,6-dimethoxyphenyl)-5-(5-methylpyridin-2-yl)-4H-1,2,4-triazole-3-carboxamide]: the EC50 lay in the range of 1 to 100 nM.

As to `COc1cccc(OC)c1-n1c(C(=O)NS(=O)(=O)Cc2ccccc2)nnc1-c1ccc(C)o1` [Example 16, N-(benzylsulfonyl)-4-(2,6-dimethoxyphenyl)-5-(5-methylfuran-2-yl)-4H-1,2,4-triazole-3-carboxamide], the EC50 fell in the range of 1 to 100 nM.

On to `COc1cccc(OC)c1-n1c(C(=O)NS(=O)(=O)Cc2ncccn2)nnc1-c1ccc(C)o1` [Example 17, 4-(2,6-Dimethoxyphenyl)-5-(5-methylfuran-2-yl)-N-((pyrimidin-2-ylmethyl)sulfonyl)-4H-1,2,4-triazole-3-carboxamide], for which the concentration for a half-maximal effect (EC50) was less than 1 nM.

On to `COc1cccc(OC)c1-n1c(C(=O)NS(=O)(=O)Cc2ccccc2)nnc1-c1cccc(OC2CCC2)n1` [Example 18, N-(benzylsulfonyl)-5-(6-cyclobutoxypyridin-2-yl)-4-(2,6-dimethoxyphenyl)-4H-1,2,4-triazole-3-carboxamide], for which the EC50 fell in the range of 1 to 100 nM.

As for `COc1cccc(OC)c1-n1c(C(=O)NS(=O)(=O)Cc2ccccc2)nnc1-c1cccc(OC2CC2)n1` [Example 19, N-(benzylsulfonyl)-5-(6-cyclopropoxypyridin-2-yl)-4-(2,6-dimethoxyphenyl)-4H-1,2,4-triazole-3-carboxamide], the EC50 is less than 1 nM.

Turning to `COc1cccc(OC)c1-n1c(C(=O)NS(=O)(=O)Cc2ncccn2)nnc1-c1cccc(OC2CC2)n1` [Example 20, 5-(6-Cyclopropoxypyridin-2-yl)-4-(2,6-dimethoxyphenyl)-N-((pyrimidin-2-ylmethyl)sulfonyl)-4H-1,2,4-triazole-3-carboxamide], the EC50 was less than 1 nM.
